# In patent US6399782B1, “Benzimidazole inhibitors of fructose 1,6-bisphosphatase” (Metabasis Therapeutics, Inc., priority 1997, dated 2002):
# Where a name gives a salt, the structure may show the parent alone.
row,melting point,SMILES
1,238 to 242 °C,"C=Cc1cc(F)c(N)c2nc(-c3ccc(P(=O)(O)O)o3)n(CC(C)C)c12 [Compound 12.70, 4-Amino-7-vinyl-5-fluoro-1-isobutyl-2-(2-phosphono-5-furanyl)benzimidazole]"
2,150 to 210 °C,"CC(C)Cn1c(-c2ccc(P(=O)(O)O)o2)nc2c(Br)cc(Br)cc21 [Compound 13.43, 4,6-Dibromo-1-isobutyl-2-(2-phosphono-5-furanyl)benzimidazole]"
3,202 to 206 °C,"Cc1c(C)c(C)c2[nH]c(-c3ccc(P(=O)(O)O)o3)nc2c1C [Compound 13.82, 4,5,6,7-Tetramethyl-2-(2-phosphono-5-furanyl)benzimidazole]"
4,200 to 203 °C,"CC(C)Cn1c(-c2ccc(P(=O)(O)O)o2)nc2ccccc21 [Compound 13.2, 1-Isobutyl-2-(2-phosphono-5-furanyl)benzimidazole]"
5,250 to 252 °C (dec.),"NCCCCn1c(-c2ccc(P(=O)(O)O)o2)nc2ccc(Cl)cc21 (hydrate or solvate) [Compound 13.95, 1-(4-Aminobutyl)-6-chloro-2-(2-phosphono-5-furanyl)benzimidazole]"
6,236 to 240 °C (dec.),Cl.NCCCCn1c(-c2ccc(P(=O)(O)O)o2)nc2cc(Cl)ccc21 (hydrate or solvate)
7,184 to 185 °C,"COc1cccc(-n2c(-c3ccc(P(=O)(O)O)o3)nc3ccc(Cl)cc32)c1 [Compound 13.65, 6-Chloro-1-(3-methoxyphenyl)-2-(2-phosphono-5-furanyl)benzimidazole]"
8,225 to 227 °C,"CC(C)Cn1c(-c2ccc(P(=O)(O)O)o2)nc2cc(Cl)c(Cl)cc21 [Compound 13.44, 5,6-Dichloro-1-isobutyl-2-(2-phosphono-5-furanyl)benzimidazole]"
9,239 to 240 °C (dec.),"CC(C)Cn1c(-c2ccc(P(=O)(O)O)o2)nc2c(N)c(F)cc(-c3ccc(F)cc3)c21 [Compound 12.68, 4-Amino-7-p-fluorophenyl-5-fluoro-1-isobutyl-2-(2-phosphono5-furanyl)benzimidazole]"
10,249 to 250 °C,"CCc1cc(F)c(N)c2c1nc(-c1ccc(P(=O)(O)O)o1)n2CC(C)C [Compound 12.65, 7-Amino-4-ethyl-6-fluoro-1-isobutyl-2-(2-phosphono-5-furanyl)benzimidazole]"
11,155 to 158 °C,"CC(C)Cn1c(-c2ccc(P(=O)(O)O)o2)nc2c(F)c(F)c(F)cc21 [Compound 12.78, 4,5,6-Trifluoro-1-isobutyl-2-(2-phosphono-5-furanyl)benzimidazole]"
12,208 to 212 °C (dec.),"COc1cccc(-c2cc(F)c(N)c3nc(-c4ccc(P(=O)(O)O)o4)n(CC(C)C)c23)c1 [Compound 12.74, 4-Amino-7-m-methoxyphenyl-5-fluoro-1-isobutyl-2-(2-phosphono-5-furanyl)benzimidazole]"
13,224 to 225 °C,"Nc1c(Br)c(Cl)c(Cl)c2nc(-c3ccc(P(=O)(O)O)o3)[nH]c12 [Compound 12.58, 4-Amino-5-bromo-6,7-dichloro-2-(2-phosphono-5-furanyl)benzimidazole]"
14,350 °C,"CC(C)COc1cccc2c1nc(-c1ccc(P(=O)(O)O)o1)n2CC(C)C [Compound 13.20, 1-Isobutyl-4-isobutyloxy-2-(2-phosphono-5-furanyl)benzimidazole]"
15,207 to 210 °C,"CCCc1ccc2c(nc(-c3ccc(P(=O)(O)O)o3)n2CC(C)C)c1N [Compound 12.60, 4-Amino-5-propyl-1-isobutyl-2-(2-phosphono-5-furanyl)benzimidazole]"
16,240 to 241 °C (dec.),"CC(C)Cn1c(-c2ccc(P(=O)(O)O)o2)nc2c(N)c(F)cc(-c3ccccc3)c21 [Compound 12.67, 4-Amino-7-phenyl-5-fluoro-1-isobutyl-2-(2-phosphono-5-furanyl)benzimidazole]"
17,220 to 224 °C,"O=C(O)c1ccccc1-n1c(-c2ccc(P(=O)(O)O)o2)nc2cc(Cl)ccc21 [Compound 13.13, 1-(2-Carboxyphenyl)-2-(2-phosphono-5-furanyl)-5-chloro benzimidazole]"
18,178 to 182 °C (dec.),"CCC(CC)Cn1c(-c2ccc(P(=O)(O)O)o2)nc2c(N)c(F)ccc21 [Compound 12.73, 4-Amino-5-fluoro-1-(2-ethylbutyl)-2-(2-phosphono-5-furanyl)benzimidazole]"
19,196 to 200 °C,"O=P(O)(O)c1ccc(-c2nc3ccccc3n2-c2ccccc2)o1 [Compound 13.12, 1-Phenyl-2-(2-phosphono-5-furanyl)benzimidazole]"
20,155 to 175 °C,"CC(C)Cn1c(-c2ccc(P(=O)(O)O)o2)nc2c(Cl)cc(Cl)cc21 [Compound 13.39, 4,6-Dichloro-1-isobutyl-2-(2-phosphono-5-furanyl)benzimidazole]"
21,192 to 195 °C,"CC(C)n1c(-c2ccc(P(=O)(O)O)o2)nc2cc(Cl)ccc21 [Compound 13.33, 5-Chloro-1-isopropyl-2-(2-phosphono-5-furanyl)benzimidazole]"

row,melting point,SMILES
1,210 to 220 °C (dec.),"CC(C)Cn1c(-c2ccc(P(=O)(O)O)o2)nc2c(N)c(F)cc(CCCCCl)c21 [Compound 12.83, 4-Amino-5-fluoro-7-(4-chlorobutyl)-1-isobutyl-2-(2-phosphono-5-furanyl)benzimidazole]"
2,205 to 209 °C,"Cc1c(Br)cc2c(nc(-c3ccc(P(=O)(O)O)o3)n2CC(C)C)c1C [Compound 13.53, 4,5-Dimethyl-6-bromo-1-isobutyl-2-(2-phosphono-5-furanyl)benzimidazole]"
3,250 to 255 °C (dec.),"CC(C)Cn1c(-c2ccc(P(=O)(O)O)o2)nc2c(N)c(F)cc(C3CC3)c21 [Compound 12.66, 4-Amino-7-cyclopropyl-5-fluoro-1-isobutyl-2-(2-phosphono-5-furanyl)benzimidazole]"
4,178 to 185 °C,"CCc1cc(F)c(N)c2nc(-c3ccc(P(=O)(O)O)o3)n(CC3CC3)c12 [Compound 12.75, 4-Amino-7-ethyl-5-fluoro-1-cyclopropylmethyl-2-(2-phosphono-5-furanyl)benzimidazole]"
5,238 °C,"CC(C)Cn1c(-c2ccc(P(=O)(O)O)o2)nc2cc(Cl)ccc21 [Compound 13.16, 5-Chloro-1-isobutyl-2-(2-phosphono-5-furanyl)benzimidazole]"
6,212 to 213 °C,"COc1ccc2c(nc(-c3ccc(P(=O)(O)O)o3)n2CC(C)C)c1N [Compound 12.55, 4-Amino-5-methoxy-1-isobutyl-2-(2-phosphono-5-furanyl)benzimidazole]"
7,202 to 205 °C,"CC(C)Cn1c(-c2ccc(P(=O)(O)O)o2)nc2ccc(F)cc21 [Compound 13.27, 6-Fluoro-1-isobutyl-2-(2-phosphono-5-furanyl)benzimidazole]"
8,180 to 185 °C (dec.),"CCC(CC)n1c(-c2ccc(P(=O)(O)O)o2)nc2c(N)c(F)ccc21 [Compound 12.76, 4-Amino-5-fluoro-1-(3-pentyl)-2-(2-phosphono-5-furanyl)benzimidazole]"
9,161 to 165 °C,"CC(C)Cn1c(-c2ccc(P(=O)(O)O)o2)nc2cc(F)c([N+](=O)[O-])c(Br)c21 [Compound 13.68, 1-Isobutyl-5-fluoro-6-nitro-7-bromo-2-(2-phosphono-5-furanyl)benzimidazole]"
10,212 to 216 °C,"Cc1c(Cl)cc2c(nc(-c3ccc(P(=O)(O)O)o3)n2CCCCBr)c1C [Compound 13.90, 1-(4-Bromobutyl)-4,5-dimethyl-6-chloro-2-(2-phosphono-5-furanyl)benzimidazole]"
11,207 to 208 °C,"Cc1c(C)c(C)c2c(nc(-c3ccc(P(=O)(O)O)o3)n2CC2CC2)c1C (hydrate or solvate) [Compound 13.88, 1-Cyclopropylmethyl-4,5,6,7-tetramethyl-2-(2-phosphono-5-furanyl)benzimidazole]"
12,180 to 210 °C,"O=P(O)(O)c1ccc(-c2nc3cc(Cl)c(Cl)cc3n2CC2CC2)o1 [Compound 13.45, 5,6-Dichloro-1-cyclopropylmethyl-2-(2-phosphono-5-furanyl)benzimidazole]"
13,206 to 209 °C,"CC(C)Cn1c(-c2ccc(P(=O)(O)O)o2)nc2c(N)c(O)ccc21 [Compound 11.1, 4-Amino-5-hydroxy-1-isobutyl-2-(2-phosphono-5-furanyl)benzimidazole]"
14,217 to 221 °C (dec.),"CC(=O)Nc1c(F)cc2nc(-c3ccc(P(=O)(O)O)o3)n(CC(C)C)c2c1Br [Compound 13.76, 1-Isobutyl-5-fluoro-6-acetamido-7-bromo-2-(2-phosphono-5-furanyl)benzimidazole]"
15,165 to 190 °C,"CCc1c(Cl)c(F)cc2[nH]c(-c3ccc(P(=O)(O)O)o3)nc12 [Compound 13.80, 5-Fluoro-6-chloro-7-ethyl-2-(2-phosphono-5-furanyl)benzimidazole]"
16,220 to 230 °C (dec.),"CCCc1cc(F)c(N)c2nc(-c3ccc(P(=O)(O)O)o3)n(CC(C)C)c12 [Compound 12.81, 4-Amino-5-fluoro-7-n-propyl-1-isobutyl-2-(2-phosphono-5-furanyl)benzimidazole]"
17,250 to 260 °C,"CC(C)Cn1c(-c2ccc(P(=O)(O)O)o2)nc2cc(F)c(F)c(F)c21 [Compound 12.77, 5,6,7-Trifluoro-1-isobutyl-2-(2-phosphono-5-furanyl)benzimidazole]"
18,208 to 211 °C,"Cc1cccc2c1nc(-c1ccc(P(=O)(O)O)o1)n2CC(C)C [Compound 13.54, 4-Methyl-1-isobutyl-2-(2-phosphono-5-furanyl)benzimidazole]"
19,196 to 199 °C,"CC(C)Cn1c(-c2ccc(P(=O)(O)O)o2)nc2cc(Cl)c(F)cc21 [Compound 13.50, 5-Chloro-6-fluoro-1-isobutyl-2-(2-phosphono-5-furanyl)benzimidazole]"
20,> 250 °C,"O=P(O)(O)c1ccc(-c2nc3ccccc3[nH]2)o1 [Compound 13.1, 2-(2-Phosphono-5-furanyl)benzimidazole]"
21,208 to 212 °C (dec.),"CC(C)Cn1c(-c2ccc(P(=O)(O)O)o2)nc2c(N)c(F)cc(CCCN(C)C)c21 (as salt: hydrobromid) [Compound 12.84, 4-Amino-5-fluoro-7-(3-N,N-dimethylpropylamine)-1-isobutyl-2-(2-phosphono-5-furanyl)benzimidazole hydrobromide salt]"
